Measurements from US5585367A (priority 1990, dated 1996).
Where two headings read alike, the source gives them in different places.

Experiments:
in vitro [1] = details: human, supt-1 cells
[2] = tested on: Molt-3 cells infected by HTLVIII-B
HIV-1 [3] = format: cell-based
[4] = tested on: human blood cell glutathione; details: N. S. KOSOWER et al. (1969); cited from earlier work
in vitro [5] = details: human, molt-3 cells, % of dead cells
[6] = tested on: genes "GAG", "LTR" and "ENV" of the HIV-1 provirus; assay: Integration of viral genome into chromosomic DNA of Supt-1 cells (PCR); format: cell-based; details: HIV-1 treated with 1/100 dilution
Method: By means of a genetic amplification through a thermostable polymerase, the presence of genes "GAG", "LTR" and "ENV" of the HIV-1 provirus is evidenced. This method is called P.C.R. Polymerase chain Reaction) (Chin-Yih Ou et al., Sciences 239, 295-297, 1988).
Said method is applied for detecting HIV-1 provirus in the genome of Supt-1 cells inoculated with HIV-1 virus incubated with […] (dilution 1/100), as described in Example 8
Amplified oligonucleotides, UV visible by means of ethidium bromide appear only in the tubes corresponding to an inoculation with HIV-1 viruses which were not treated with the active substance.
One proceeds as in Example 11(c). The search of genes "GAG", "LTR" and "ENV" has been made in cellular cultures inoculated with a virus incubated for 15 minutes with the active substance. This search is appeared as being negative, and thus it can be concluded that 1.1'-azobisformamide at the dosage of 35 μgr/ml protects the cells against infection by HIV-1.
Examples 10c and 11c disclose a more accurate method than the ELISA test for examining whether the inoculated cells contain HIV-1 at the end of the assay, i.e., the PCR-Method.

[7] = tested on: lymphocyte cellular lines; assay: Toxicity for human lymphocyte cellular lines; format: cell-based; details: even after 24 hours
HIV-1 [8] = format: cell-based; remark: listed apart in the source
[9] = tested on: HIV strain of the patient; assay: Resistance of the patient's HIV strain (course of treatment; gene sequencing of viral RNA); details: for genetic resistance of the patient's strain: mutations in codons 67, 70, 184, 215 and 219; for resistance, concomitant medication: patient of Example 27, DDI, then DDI and DDC
wild HIV-1 strains = assay: Phenotypic resistance of wild HIV-1 strains; format: cell-based; details: strains marked * (Wild A, B, C, F, G)

In the case of `CN(C)C(=O)N=NC(=O)N(C)C` [1.1'-azobisdimethylformamide], the cytotoxicity at 0 h (in vitro [1]) is reported as 26%, the cytotoxicity at 1 h (in vitro [1]) is reported as 24% and the cytotoxicity at 5 h (in vitro [1]) is reported as 28%. For the same compound, the “mortality of the infected cells” value ([2]; after 30 minutes, even at dilution 1/3000) was “mortality of the infected cells is doubled”, the “Number of dead cells” value ([2]; dilution 1/500, 1 min) was 9 and the “Number of living cells” value ([2]; dilution 1/500, 1 min) was 62. The “Number of dead cells” value ([2]; dilution 1/500, 10 min) was 11, the “Number of living cells” value ([2]; dilution 1/500, 10 min) was 67 and the “Number of dead cells” value ([2]; dilution 1/500, 30 min) was 12. The “Number of living cells” value ([2]; dilution 1/500, 30 min) was 58, the “Number of dead cells” value ([2]; dilution 1/1500, 30 min) was 15 and the “Number of living cells” value ([2]; dilution 1/1500, 30 min) was 70. For the same compound, the “Number of dead cells” value ([2]; dilution 1/3000, 30 min) was 12, the “Number of living cells” value ([2]; dilution 1/3000, 30 min) was 58 and the “% of dead cells” value ([2]; human, molt-3 cells, 0.5 h) was 17.6%. For the same compound, the cytopathogenic effect (HIV-1 [3]) was “no cytopathogenic effect was observed”, the “intracellular oxidising action on human blood cell glutathione” value [4] was “intracellular oxidising action on human blood cell glutathione” and the cytotoxicity at 1 min (in vitro [5]) was 12.7%. For the same compound, the cytotoxicity at 10 min (in vitro [5]) was 14%, the cytotoxicity at 0.5 h (in vitro [5]) was 17.1% and the “HIV-1 provirus within Supt-1 cells” value [6] was “totally absent”. For the same compound, the “cellular viability of Supt-1 cells” value (Supt-1 cells) was “does not decrease the cellular viability”, the “toxicity against sound Supt-1 cells” value (Supt-1 cells) was “no toxicity against sound Supt-1 cells” and the “toxicity for human Supt-1 cells” value (Supt-1 cells) was “no toxicity”. The “toxicity for human lymphocyte cellular lines” value [7] was “no toxicity”, the “effectiveness up to the 25th day” value (HIV-1 [8]) was “effectiveness of this active substance is maintained” and the “infection of sound Supt-1 cells by treated HIV” value (HIV-1 [8]) was “is not able to infect the sound Supt-1 cells”. The “protection of Supt-1 cells” value (HIV-1 [8]) was “has this effect”.
For `O=c1[nH]cnc2c1ncn2[C@H]1CC[C@@H](CO)O1` [DDI], the “genetic resistance of the patient's strain” value (“genetic resistance” for short) [9] was “genetically resistant” and the “resistance, concomitant medication” value [9] was “stopped because of resistance”.
In the case of `Nc1ccn([C@H]2CC[C@@H](CO)O2)c(=O)n1` [DDC], the “genetic resistance” value [9] is reported as “genetically resistant” and the “resistance, concomitant medication” value [9] is reported as “stopped because of resistance”.
With `Nc1ccn([C@@H]2CS[C@H](CO)O2)c(=O)n1` [3TC] the “genetic resistance” value [9] was “genetically resistant”.
In the case of `Cc1cn([C@H]2C[C@H](N=[N+]=[N-])[C@@H](CO)O2)c(=O)[nH]c1=O` [AZT, 3'-azido-3'-desoxythymidine], the “genetic resistance” value [9] is reported as “genetically resistant” and the “phenotypic resistance to AZT” value (wild HIV-1 strains) is reported as “Phenotypically resistant”.
